Test results from patent US20100093638A1, “TREAMENT FOR CHEMICAL SUBSTANCE ADDICTION” (priority 2007, published 2010).
No end group written: not given here.

Key:
[1] = tested on: ghrelin receptor (GHS-R1A) knockout mice; conditions: alcohol 1.0 g/kg i.p.; GHS-R knockout mice vs wildtype; P<0.05
Text: Locomotor activity was registered in eight sound attenuated, ventilated and dimly lit locomotor boxes (420×420×200 mm, Plexiglas®). Five by five rows of photocell beams at the floor level of the box allowed a computer-based system to register the activity of the mice. The mice were allowed to habituate to the environment in the box for one hour before drug challenge and initialization of the experiment. […] Locomotor activity was defined as the accumulated number of new photocell beams interrupted during a 60-minute period.

[2] = tested on: ghrelin receptor (GHS-R1A) knockout mice; conditions: alcohol 1.0 g/kg ip; GHSR knockout mice vs wt/wt
Description: The mice were implanted with a microdialysis probe in the nucleus accumbens for measurements of extracellular dopamine levels. […] The mice were connected to the microdialysis apparatus via a liquid swivel (CMA/Microdialysis AB, Stockholm, Sweden) and were able to move freely during the experiment. After one hour of habituation to the microdialysis perfusion set up, perfusion samples (30 μl) were collected every 20 minutes. Five samples were collected prior to the first alcohol challenge. The baseline dopamine level is defined as the averaged concentration of the three consecutive samples before the first alcohol challenge. Thereafter vehicle (saline, ip) was administered at time 0 minutes.

mice = assay: Effects of central ghrelin injection on alcohol intake and alcohol preference, two-bottle free choice paradigm; format: in vivo; conditions: for average alcohol intake / average alcohol preference: ghrelin 2 μg in 1 μl into third ventricle; for average alcohol intake: baseline 1.65; for average alcohol preference: day before 26.76%
Text: The following studies sought to determine whether ghrelin increases alcohol intake and the preference for alcohol in mice selected on the basis of their spontaneous level of alcohol intake. We tested the effects of ghrelin injection into the brain ventricles on alcohol consumption and alcohol preference in mice.
All mice used in this study were selected on the basis of their spontaneously medium level of alcohol intake. Initially, the mice were able to choose freely between alcohol solution (10%) and water. When they had established a stable alcohol intake (approximately 20-80% of their total fluid intake was alcohol) they began a training schedule that gave them access to 10% alcohol for 90 min ever day over two weeks. The mice were then implanted with a cannula into the third ventricle of the brain for subsequent injection. During a baseline period, spontaneous alcohol intake was measured during a 90 min period average for 3 measurements taken on 3 days using a two-bottle free choice paradigm (i.e. water or 10% alcohol). The same protocol was used after ghrelin/vehicle injection on the experimental days.

[3] = intraventricular administration, p<0.05, paired t-test

| Compound | alcohol-induced locomotor activity [1] | alcohol-induced accumbal dopamine release [2] | average alcohol intake (mice; experiment day one) | average alcohol preference (mice; experiment day one) | average alcohol intake (mice; experiment day two) | average alcohol preference (mice; experiment day two) | effect on alcohol intake compared to the day before the experiments (mice; [3]) | effect on alcohol preference compared to the day before the experiments (mice; [3]) |
| --- | --- | --- | --- | --- | --- | --- | --- | --- |
| CCO [alcohol] | do not show an alcohol-induced locomotor activity | blunted |  |  |  |  |  |  |
| ghrelin (GSSFLSPEHQRVQQRKESKKPPAKLQPR; ends and bridges not checked; UniProt Q9UBU3 24-51, looked up) [endogenous ligand for GHS-R, secreted by stomach tissue; purchasable from Bachem] |  |  | 1.72 g/kg/1.5 hr | 31.72% | 2.15 g/kg/1.5 hr | 33.70% | increased the alcohol intake | significant increase of alcohol preference |
